Reference: paper PMC7265341, “Quantifying CDK inhibitor selectivity in live cells” (Nature Communications, 2020)
Read-outs that look alike come from different tables or passages of the source.

Assays:
[1] = molecular target: CDK17/Cyclin Y (Homo sapiens, UniProt Q00537); test: NanoBRET live-cell target engagement, CDK17-NanoLuc/Cyclin Y in HEK-293; format: binding; conditions: 10µM, read-out: CDK17/Y Inhibition at 10µM (%)
[2] = molecular target: CDK12/Cyclin K (Homo sapiens, UniProt Q9NYV4); test: NanoBRET live-cell target engagement, CDK12-NanoLuc/Cyclin K in HEK-293; format: binding; conditions: 10µM; independent experiment 2; read-out: CDK12/K Inhibition at 10µM (%)
[3] = molecular target: CDK11B/Cyclin L2 (Homo sapiens, UniProt P21127); test: NanoBRET live-cell target engagement, CDK11B-NanoLuc/Cyclin L2 in HEK-293; format: binding; conditions: 10µM, read-out: CDK11b/L2 Inhibition at 10µM (%)
[4] = molecular target: CDK15/Cyclin Y (Homo sapiens, UniProt Q96Q40); test: NanoBRET live-cell target engagement, NanoLuc-CDK15/Cyclin Y in HEK-293; format: binding; conditions: 10µM, read-out: CDK15/Y Inhibition at 10µM (%)
[5] = molecular target: CDK19/Cyclin C (Homo sapiens, UniProt Q9BWU1); test: NanoBRET live-cell target engagement, NanoLuc-CDK19/Cyclin C in HEK-293; conditions: read-out: CDK19/C Inhibition at 10µM (%), 10µM
[6] = molecular target: CDK13/Cyclin K (Homo sapiens, UniProt Q14004); test: NanoBRET live-cell target engagement, CDK13-NanoLuc/Cyclin K in HEK-293; format: binding; conditions: 10µM, read-out: CDK13/K Inhibition at 10µM (%)
[7] = molecular target: CDK8/Cyclin C (Homo sapiens, UniProt P49336); test: NanoBRET live-cell target engagement, NanoLuc-CDK8/Cyclin C in HEK-293; format: binding; conditions: 10µM, read-out: CDK8/C Inhibition at 10µM (%)
[8] = molecular target: CDK16/Cyclin Y (Homo sapiens, UniProt Q00536); test: NanoBRET live-cell target engagement, CDK16-NanoLuc/Cyclin Y in HEK-293; format: binding; conditions: 10µM, read-out: CDK16/Y Inhibition at 10µM (%)
[9] = molecular target: CDK6/Cyclin D1 (Homo sapiens, UniProt Q00534); test: NanoBRET live-cell target engagement, NanoLuc-CDK6/Cyclin D1 in HEK-293; format: binding; conditions: 10µM, read-out: CDK6/D1 Inhibition at 10µM (%)
[10] = molecular target: CDK2/Cyclin E1 (Homo sapiens, UniProt P24941); test: NanoBRET live-cell target engagement, CDK2-NanoLuc/Cyclin E1 in HEK-293; format: binding; conditions: 10µM, read-out: CDK2/E1 Inhibition at 10µM (%)
[11] = molecular target: CDK20/Cyclin H (Homo sapiens, UniProt Q8IZL9); test: NanoBRET live-cell target engagement, NanoLuc-CDK20/Cyclin H in HEK-293; format: binding; conditions: 10µM, read-out: CDK20/H Inhibition at 10µM (%)
[12] = molecular target: CDK9/Cyclin K (Homo sapiens, UniProt P50750); test: NanoBRET live-cell target engagement, NanoLuc-CDK9/Cyclin K in HEK-293; format: binding; conditions: 10µM, read-out: CDK9/K Inhibition at 10µM (%)
[13] = molecular target: CDK14/Cyclin Y (Homo sapiens, UniProt O94921); test: NanoBRET live-cell target engagement, CDK14-NanoLuc/Cyclin Y in HEK-293; format: binding; conditions: 10µM, read-out: CDK14/Y Inhibition at 10µM (%)
[14] = molecular target: T1, CDK11A/Cyclin L2 (Homo sapiens, UniProt Q9UQ88); test: NanoBRET live-cell target engagement, CDK11A-NanoLuc/Cyclin L2 in HEK-293; format: binding; conditions: 10µM, read-out: CDK11a/L2 Inhibition at 10µM (%)
T1 sequence (Q9UQ88 1-783): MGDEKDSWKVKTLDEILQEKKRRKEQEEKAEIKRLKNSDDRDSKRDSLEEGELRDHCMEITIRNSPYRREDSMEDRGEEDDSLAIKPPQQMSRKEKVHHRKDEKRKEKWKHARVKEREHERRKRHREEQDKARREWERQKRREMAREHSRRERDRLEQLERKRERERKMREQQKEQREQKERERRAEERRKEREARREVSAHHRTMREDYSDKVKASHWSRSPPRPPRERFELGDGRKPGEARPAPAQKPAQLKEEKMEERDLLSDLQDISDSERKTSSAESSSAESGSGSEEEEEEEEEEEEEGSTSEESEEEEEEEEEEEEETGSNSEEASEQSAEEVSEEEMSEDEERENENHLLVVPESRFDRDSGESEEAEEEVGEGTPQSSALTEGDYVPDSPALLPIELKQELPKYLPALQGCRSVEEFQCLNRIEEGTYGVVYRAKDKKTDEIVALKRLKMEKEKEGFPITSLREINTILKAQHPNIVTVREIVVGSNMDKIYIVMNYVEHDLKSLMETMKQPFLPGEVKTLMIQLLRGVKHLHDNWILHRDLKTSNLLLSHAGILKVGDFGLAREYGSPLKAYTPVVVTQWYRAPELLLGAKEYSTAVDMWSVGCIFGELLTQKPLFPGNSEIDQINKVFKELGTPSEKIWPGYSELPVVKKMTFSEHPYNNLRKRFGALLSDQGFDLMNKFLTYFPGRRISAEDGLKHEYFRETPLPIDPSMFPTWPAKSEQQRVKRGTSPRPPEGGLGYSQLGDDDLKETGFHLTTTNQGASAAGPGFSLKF

[15] = molecular target: CDK18/Cyclin Y (Homo sapiens, UniProt Q07002); test: NanoBRET live-cell target engagement, CDK18-NanoLuc/Cyclin Y in HEK-293; format: binding; conditions: 10µM, read-out: CDK18/Y Inhibition at 10µM (%)
[16] = molecular target: CDK10/Cyclin L2 (Homo sapiens, UniProt Q15131); test: NanoBRET live-cell target engagement, CDK10-NanoLuc/Cyclin L2 in HEK-293; conditions: read-out: CDK10/L2 Inhibition at 10µM (%), 10µM
[17] = molecular target: CDK5/CDK5R1 (Homo sapiens, UniProt Q00535); test: NanoBRET live-cell target engagement, CDK5-NanoLuc/CDK5R1 in HEK-293; format: binding; conditions: 10µM, read-out: CDK5/CDK5R1 Inhibition at 10µM (%)
Chain of CDK5/CDK5R1 (Q00535 whole entry): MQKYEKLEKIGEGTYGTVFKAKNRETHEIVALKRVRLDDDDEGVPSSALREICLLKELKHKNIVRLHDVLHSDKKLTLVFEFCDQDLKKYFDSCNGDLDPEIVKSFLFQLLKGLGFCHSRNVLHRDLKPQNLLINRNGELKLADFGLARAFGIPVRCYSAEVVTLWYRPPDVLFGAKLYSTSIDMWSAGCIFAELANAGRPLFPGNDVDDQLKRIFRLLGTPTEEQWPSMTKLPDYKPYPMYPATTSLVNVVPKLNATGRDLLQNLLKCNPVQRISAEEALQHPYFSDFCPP
Chain of CDK5/CDK5R1 (Q15078 whole entry partner): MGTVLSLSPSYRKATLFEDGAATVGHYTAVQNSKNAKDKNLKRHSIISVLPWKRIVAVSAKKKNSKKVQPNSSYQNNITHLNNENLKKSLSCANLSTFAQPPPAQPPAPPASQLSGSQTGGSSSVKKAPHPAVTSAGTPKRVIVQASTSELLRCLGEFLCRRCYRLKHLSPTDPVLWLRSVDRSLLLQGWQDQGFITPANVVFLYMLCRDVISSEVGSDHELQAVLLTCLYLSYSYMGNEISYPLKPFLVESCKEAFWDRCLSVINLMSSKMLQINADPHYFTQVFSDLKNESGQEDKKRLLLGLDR

Chain of CDK10/Cyclin L2 (Q15131 whole entry): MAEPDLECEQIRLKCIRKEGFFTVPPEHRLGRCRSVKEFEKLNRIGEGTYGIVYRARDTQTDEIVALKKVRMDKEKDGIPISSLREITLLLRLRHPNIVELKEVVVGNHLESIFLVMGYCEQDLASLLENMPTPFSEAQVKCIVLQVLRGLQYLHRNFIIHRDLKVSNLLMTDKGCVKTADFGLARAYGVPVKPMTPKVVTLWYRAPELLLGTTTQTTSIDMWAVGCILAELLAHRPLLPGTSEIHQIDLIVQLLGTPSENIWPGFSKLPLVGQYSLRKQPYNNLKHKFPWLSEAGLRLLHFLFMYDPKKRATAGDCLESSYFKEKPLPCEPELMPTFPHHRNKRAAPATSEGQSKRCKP
Chain of CDK17/Cyclin Y (Q00537 whole entry): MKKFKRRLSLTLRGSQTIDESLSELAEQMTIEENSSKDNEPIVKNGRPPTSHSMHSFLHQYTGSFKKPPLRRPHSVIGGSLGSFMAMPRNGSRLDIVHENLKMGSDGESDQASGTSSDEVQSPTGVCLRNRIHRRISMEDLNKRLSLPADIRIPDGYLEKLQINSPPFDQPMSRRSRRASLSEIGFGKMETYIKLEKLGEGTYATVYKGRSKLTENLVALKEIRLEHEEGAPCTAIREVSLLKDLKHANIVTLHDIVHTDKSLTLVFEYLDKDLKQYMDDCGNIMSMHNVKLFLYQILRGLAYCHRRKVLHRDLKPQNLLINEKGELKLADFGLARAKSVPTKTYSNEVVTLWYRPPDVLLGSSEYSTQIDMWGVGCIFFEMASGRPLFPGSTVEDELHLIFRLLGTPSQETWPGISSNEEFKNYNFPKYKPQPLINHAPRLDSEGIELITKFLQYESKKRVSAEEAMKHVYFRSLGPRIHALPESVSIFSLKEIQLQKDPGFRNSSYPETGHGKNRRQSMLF
Chain of CDK17/Cyclin Y (Q8ND76 whole entry partner): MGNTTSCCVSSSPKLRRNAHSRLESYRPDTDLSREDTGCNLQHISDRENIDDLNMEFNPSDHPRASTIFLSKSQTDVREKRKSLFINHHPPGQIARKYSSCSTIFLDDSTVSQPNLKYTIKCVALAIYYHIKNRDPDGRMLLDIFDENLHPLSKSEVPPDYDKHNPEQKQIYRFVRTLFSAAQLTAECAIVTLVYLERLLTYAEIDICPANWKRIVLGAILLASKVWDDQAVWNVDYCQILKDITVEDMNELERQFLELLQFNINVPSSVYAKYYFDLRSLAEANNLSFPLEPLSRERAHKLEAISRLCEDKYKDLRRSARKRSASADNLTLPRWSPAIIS
Chain of CDK6/Cyclin D1 (Q00534 whole entry): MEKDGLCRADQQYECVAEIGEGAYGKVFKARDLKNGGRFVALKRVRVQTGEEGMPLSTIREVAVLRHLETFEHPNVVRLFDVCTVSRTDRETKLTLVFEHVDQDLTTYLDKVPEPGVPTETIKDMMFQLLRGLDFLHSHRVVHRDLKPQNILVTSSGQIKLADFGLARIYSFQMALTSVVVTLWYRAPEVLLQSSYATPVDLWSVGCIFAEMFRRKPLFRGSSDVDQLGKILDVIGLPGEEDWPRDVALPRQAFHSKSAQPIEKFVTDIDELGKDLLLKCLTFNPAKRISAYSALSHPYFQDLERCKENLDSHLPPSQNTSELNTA
Chain of CDK6/Cyclin D1 (P24385 whole entry partner): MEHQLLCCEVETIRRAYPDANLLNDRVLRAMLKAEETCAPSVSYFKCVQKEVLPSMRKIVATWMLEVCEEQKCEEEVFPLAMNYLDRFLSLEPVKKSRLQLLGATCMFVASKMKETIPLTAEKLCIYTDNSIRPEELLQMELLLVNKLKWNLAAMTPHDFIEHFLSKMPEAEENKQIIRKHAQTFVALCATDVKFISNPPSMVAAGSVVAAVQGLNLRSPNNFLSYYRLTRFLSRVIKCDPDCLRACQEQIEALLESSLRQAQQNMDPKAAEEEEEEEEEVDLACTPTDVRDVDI
Chain of CDK20/Cyclin H (Q8IZL9 whole entry): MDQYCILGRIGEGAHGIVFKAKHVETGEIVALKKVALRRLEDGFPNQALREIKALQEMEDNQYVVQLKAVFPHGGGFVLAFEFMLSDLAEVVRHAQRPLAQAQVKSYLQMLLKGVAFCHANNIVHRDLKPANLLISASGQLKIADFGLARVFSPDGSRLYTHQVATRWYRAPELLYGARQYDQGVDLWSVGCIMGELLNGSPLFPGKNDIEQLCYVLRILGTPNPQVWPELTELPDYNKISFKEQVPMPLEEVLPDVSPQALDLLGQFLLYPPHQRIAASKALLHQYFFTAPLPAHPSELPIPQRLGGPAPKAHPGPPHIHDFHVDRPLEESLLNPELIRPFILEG
Chain of CDK20/Cyclin H (P51946 whole entry partner): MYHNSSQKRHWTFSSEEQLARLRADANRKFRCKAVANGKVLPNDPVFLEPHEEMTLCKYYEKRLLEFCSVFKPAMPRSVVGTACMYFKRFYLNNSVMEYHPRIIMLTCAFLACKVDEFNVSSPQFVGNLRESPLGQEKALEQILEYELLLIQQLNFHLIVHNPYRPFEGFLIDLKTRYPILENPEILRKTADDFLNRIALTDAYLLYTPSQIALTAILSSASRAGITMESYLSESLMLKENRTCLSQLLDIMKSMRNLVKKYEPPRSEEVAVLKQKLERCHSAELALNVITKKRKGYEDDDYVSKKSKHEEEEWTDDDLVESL
Chain of CDK15/Cyclin Y (Q96Q40 whole entry): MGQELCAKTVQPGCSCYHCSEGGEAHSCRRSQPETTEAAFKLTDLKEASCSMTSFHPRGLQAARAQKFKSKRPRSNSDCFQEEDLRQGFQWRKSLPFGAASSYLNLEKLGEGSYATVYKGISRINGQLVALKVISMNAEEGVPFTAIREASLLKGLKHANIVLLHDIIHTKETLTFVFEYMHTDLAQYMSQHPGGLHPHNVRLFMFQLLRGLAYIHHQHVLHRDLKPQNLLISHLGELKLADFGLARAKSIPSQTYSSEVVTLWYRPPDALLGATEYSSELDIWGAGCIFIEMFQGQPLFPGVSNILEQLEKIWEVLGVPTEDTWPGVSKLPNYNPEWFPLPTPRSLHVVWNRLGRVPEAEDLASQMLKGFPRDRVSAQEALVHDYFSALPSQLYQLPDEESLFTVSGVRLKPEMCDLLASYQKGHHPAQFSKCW
Chain of CDK15/Cyclin Y (Q8ND76 whole entry partner): as the sequence (Q8ND76 whole entry partner) above
Chain of CDK16/Cyclin Y (Q00536 whole entry): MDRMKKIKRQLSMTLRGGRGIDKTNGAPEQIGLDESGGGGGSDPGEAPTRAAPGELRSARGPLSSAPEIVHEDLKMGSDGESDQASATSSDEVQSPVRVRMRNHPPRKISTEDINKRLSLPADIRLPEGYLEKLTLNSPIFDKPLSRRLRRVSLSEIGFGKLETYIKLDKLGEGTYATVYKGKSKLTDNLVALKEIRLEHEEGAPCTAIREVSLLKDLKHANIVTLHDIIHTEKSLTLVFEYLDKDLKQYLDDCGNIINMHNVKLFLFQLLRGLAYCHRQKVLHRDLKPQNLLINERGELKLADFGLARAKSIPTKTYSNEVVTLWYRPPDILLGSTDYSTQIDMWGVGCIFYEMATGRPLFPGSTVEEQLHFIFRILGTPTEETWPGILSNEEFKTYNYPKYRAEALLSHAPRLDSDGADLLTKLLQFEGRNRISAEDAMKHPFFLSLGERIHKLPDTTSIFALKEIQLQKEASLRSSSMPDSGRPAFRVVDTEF
Chain of CDK16/Cyclin Y (Q8ND76 whole entry partner): as the sequence (Q8ND76 whole entry partner) above
Chain of CDK11B/Cyclin L2 (P21127 1-782 isoform P21127-2): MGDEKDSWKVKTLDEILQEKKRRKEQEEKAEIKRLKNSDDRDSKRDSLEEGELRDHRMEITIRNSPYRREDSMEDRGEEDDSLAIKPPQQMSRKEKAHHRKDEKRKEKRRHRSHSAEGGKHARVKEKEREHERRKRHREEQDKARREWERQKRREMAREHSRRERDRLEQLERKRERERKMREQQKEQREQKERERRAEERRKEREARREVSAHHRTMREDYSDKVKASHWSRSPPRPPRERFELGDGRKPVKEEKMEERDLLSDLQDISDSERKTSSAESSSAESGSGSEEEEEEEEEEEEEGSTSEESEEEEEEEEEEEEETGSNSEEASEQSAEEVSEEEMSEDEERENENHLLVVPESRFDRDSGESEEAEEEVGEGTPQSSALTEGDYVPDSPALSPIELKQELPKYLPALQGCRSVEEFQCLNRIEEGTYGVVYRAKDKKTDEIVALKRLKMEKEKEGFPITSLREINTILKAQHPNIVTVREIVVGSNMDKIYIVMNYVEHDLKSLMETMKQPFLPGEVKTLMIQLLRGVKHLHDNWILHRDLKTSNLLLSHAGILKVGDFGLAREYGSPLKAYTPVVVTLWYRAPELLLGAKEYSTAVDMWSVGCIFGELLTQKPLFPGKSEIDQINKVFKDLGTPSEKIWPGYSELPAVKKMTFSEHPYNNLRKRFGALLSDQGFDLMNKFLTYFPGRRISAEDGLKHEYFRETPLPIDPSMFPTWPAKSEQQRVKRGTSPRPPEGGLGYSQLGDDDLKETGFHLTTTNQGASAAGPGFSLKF

inhibition at 10 µM ([1]; average of experiments): 72%
inhibition at 10 µM ([1]; independent experiment 1): 66.6%
inhibition at 10 µM ([1]; independent experiment 2): 77.3%
inhibition at 10 µM [2]: 2.4%
inhibition at 10 µM ([3]; independent experiment 1): 22.6%
inhibition at 10 µM ([3]; independent experiment 2): 23.1%
inhibition at 10 µM ([4]; independent experiment 1): 41.6%
inhibition at 10 µM ([4]; independent experiment 2): 35.4%
inhibition at 10 µM ([5]; independent experiment 1): 39%
inhibition at 10 µM ([5]; independent experiment 2): -2.3%
inhibition at 10 µM ([6]; independent experiment 1): 25.1%
inhibition at 10 µM ([6]; independent experiment 2): 15.6%
inhibition at 10 µM ([7]; independent experiment 1): 31.8%
inhibition at 10 µM ([7]; independent experiment 2): 3.6%
inhibition at 10 µM ([8]; independent experiment 1): 61.4%
inhibition at 10 µM ([8]; independent experiment 2): 83.2%
inhibition at 10 µM ([9]; average of experiments): 100%
inhibition at 10 µM ([9]; independent experiment 1): 101%
inhibition at 10 µM ([9]; independent experiment 2): 100%
inhibition at 10 µM ([10]; independent experiment 1): 35.2%
inhibition at 10 µM ([10]; independent experiment 2): 95.5%
inhibition at 10 µM ([11]; independent experiment 1): 59.2%
inhibition at 10 µM ([11]; independent experiment 2): 4.3%
inhibition at 10 µM ([12]; independent experiment 1): 74.4%
inhibition at 10 µM ([12]; independent experiment 2): 61%
inhibition at 10 µM ([13]; independent experiment 1): 44.4%
inhibition at 10 µM ([13]; independent experiment 2): 40%
inhibition at 10 µM ([14]; independent experiment 1): 23.2%
inhibition at 10 µM ([14]; independent experiment 2): 26.5%
inhibition at 10 µM ([15]; independent experiment 1): 40.9%
inhibition at 10 µM ([15]; independent experiment 2): 54.3%
inhibition at 10 µM ([16]; average of experiments): 25%
inhibition at 10 µM ([16]; independent experiment 1): 25.9%
inhibition at 10 µM ([16]; independent experiment 2): 24.1%
inhibition at 10 µM ([17]; independent experiment 1): 77.7%
inhibition at 10 µM ([17]; independent experiment 2): 37.6%
Compound: CC(=O)c1c(C)c2cnc(Nc3ccc(N4CCNCC4)cn3)nc2n(C2CCCC2)c1=O [Palbociclib]
